Measured values taken from patent publication US20260262643A1, “HERBICIDAL BENZOXAZINES” (FMC CORPORATION, priority 2022, published 2026).

Key:
[1] = tested on: sedge, umbrella; assay: Test D flooded paddy test; format: in vivo, Cyperus difformis; conditions: 250 g ai/ha, applied to paddy water, visual rating after 13 to 14 days, scale 0 to 100 (0 no effect, 100 complete control)
Outline: (§1)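 Seedlings reached the 2-leaf stage, then pots were flooded to 3 cm over the soil surface. Compound was applied into the water, depth was maintained, and plants stayed in the greenhouse 13 to 14 days before visual scoring (0–100) relative to controls.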

[2] = tested on: horseweed; assay: Test C postemergence; format: in vivo, Erigeron canadensis; conditions: 10 days, 0 to 100 scale (0 no effect, 100 complete control)
Outline: (§2)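 Visual injury ratings on a 0–100 scale (100 = complete control) were made against untreated controls 10 days after treatment in the greenhouse. Compounds, formulated with surfactant in non-phytotoxic solvent, were sprayed on soil preemergence or onto one- to two-leaf plants 2–10 cm tall postemergence.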

[3] = tested on: barnyardgrass; assay: Test C preemergence; format: in vivo, Echinochloa crusgalli; conditions: for Barnyardgrass plant response rating: 500 g ai/ha, preemergence, 0 to 100 scale (0 no effect, 100 complete control); for Plant response rating, Barnyardgrass: Preemergence, 125 g ai/ha, 0 to 100 scale, 0 no effect, 100 complete control
Outline: as §2

[4] = tested on: blackgrass; assay: Test C preemergence; format: in vivo, Alopecurus myosuroides; conditions: for Blackgrass plant response rating: 500 g ai/ha, preemergence, 0 to 100 scale (0 no effect, 100 complete control); for Plant response rating, Blackgrass: Preemergence, 125 g ai/ha, 0 to 100 scale, 0 no effect, 100 complete control
Outline: as §2

[5] = tested on: barnyardgrass; assay: Test C postemergence; format: in vivo, Echinochloa crusgalli; conditions: 10 days, 0 to 100 scale (0 no effect, 100 complete control)
Outline: as §2

[6] = tested on: corn; assay: Test C postemergence; format: in vivo, Zea mays; conditions: 10 days, 0 to 100 scale (0 no effect, 100 complete control)
Outline: as §2

[7] = tested on: soybean; assay: Test C preemergence; format: in vivo, Glycine max; conditions: for Soybean plant response rating: 500 g ai/ha, preemergence, 0 to 100 scale (0 no effect, 100 complete control); for Plant response rating, Soybean: Preemergence, 125 g ai/ha, 0 to 100 scale, 0 no effect, 100 complete control
Outline: as §2

[8] = tested on: ragweed; assay: Test C postemergence; format: in vivo, Ambrosia artemisiifolia; conditions: 10 days, 0 to 100 scale (0 no effect, 100 complete control)
Outline: as §2

[9] = tested on: ryegrass, Italian; assay: Test C postemergence; format: in vivo, Lolium multiflorum; conditions: 10 days, 0 to 100 scale (0 no effect, 100 complete control)
Outline: as §2

[10] = tested on: wheat; assay: Test C postemergence; format: in vivo, Triticum aestivum; conditions: 10 days, 0 to 100 scale (0 no effect, 100 complete control)
Outline: as §2

[11] = tested on: barnyardgrass; assay: Test D flooded paddy test; format: in vivo, Echinochloa crus-galli; conditions: 250 g ai/ha, applied to paddy water, visual rating after 13 to 14 days, scale 0 to 100 (0 no effect, 100 complete control)
Outline: as §1

[12] = tested on: soybean; assay: Test C postemergence; format: in vivo, Glycine max; conditions: 10 days, 0 to 100 scale (0 no effect, 100 complete control)
Outline: as §2

[13] = tested on: pigweed, palmer; assay: Test C postemergence; format: in vivo, Amaranthus palmeri; conditions: 10 days, 0 to 100 scale (0 no effect, 100 complete control)
Outline: as §2

[14] = tested on: rice; assay: Test D flooded paddy test; format: in vivo, Oryza sativa; conditions: 250 g ai/ha, applied to paddy water, visual rating after 13 to 14 days, scale 0 to 100 (0 no effect, 100 complete control)
Outline: as §1

[15] = tested on: green foxtail; assay: Test C preemergence; format: in vivo, Setaria viridis; conditions: for Foxtail, Green plant response rating: 500 g ai/ha, preemergence, 0 to 100 scale (0 no effect, 100 complete control); for Plant response rating, Foxtail, Green: Preemergence, 125 g ai/ha, 0 to 100 scale, 0 no effect, 100 complete control
Outline: as §2

[16] = tested on: pigweed, palmer; assay: Test C preemergence; format: in vivo, Amaranthus palmeri; conditions: for Pigweed, Palmer plant response rating: 500 g ai/ha, preemergence, 0 to 100 scale (0 no effect, 100 complete control)
Outline: as §2

[17] = tested on: corn; assay: Test C preemergence; format: in vivo, Zea mays; conditions: for Corn plant response rating: 500 g ai/ha, preemergence, 0 to 100 scale (0 no effect, 100 complete control); for Plant response rating, Corn: Preemergence, 125 g ai/ha, 0 to 100 scale, 0 no effect, 100 complete control
Outline: as §2

[18] = tested on: ducksalad; assay: Test D flooded paddy test; format: in vivo, Heteranthera limosa; conditions: 250 g ai/ha, applied to paddy water, visual rating after 13 to 14 days, scale 0 to 100 (0 no effect, 100 complete control)
Outline: as §1

[19] = tested on: ragweed; assay: Test C preemergence; format: in vivo, Ambrosia artemisiifolia; conditions: for Ragweed plant response rating: 500 g ai/ha, preemergence, 0 to 100 scale (0 no effect, 100 complete control); for Plant response rating, Ragweed: Preemergence, 125 g ai/ha, 0 to 100 scale, 0 no effect, 100 complete control
Outline: as §2

[20] = tested on: blackgrass; assay: Test C postemergence; format: in vivo, Alopecurus myosuroides; conditions: 10 days, 0 to 100 scale (0 no effect, 100 complete control)
Outline: as §2

[21] = tested on: ryegrass, Italian; assay: Test C preemergence; format: in vivo, Lolium multiflorum; conditions: for Ryegrass, Italian plant response rating: 500 g ai/ha, preemergence, 0 to 100 scale (0 no effect, 100 complete control); for Plant response rating, Ryegrass, Italian: Preemergence, 125 g ai/ha, 0 to 100 scale, 0 no effect, 100 complete control
Outline: as §2

[22] = tested on: kochia; assay: Test C postemergence; format: in vivo, Bassia scoparia; conditions: 10 days, 0 to 100 scale (0 no effect, 100 complete control)
Outline: as §2

[23] = tested on: kochia; assay: Test C preemergence; format: in vivo, Bassia scoparia; conditions: for Kochia plant response rating: 500 g ai/ha, preemergence, 0 to 100 scale (0 no effect, 100 complete control); for Plant response rating, Kochia: Preemergence, 125 g ai/ha, 0 to 100 scale, 0 no effect, 100 complete control
Outline: as §2

[24] = tested on: oat, wild; assay: Test C postemergence; format: in vivo, Avena fatua; conditions: 10 days, 0 to 100 scale (0 no effect, 100 complete control)
Outline: as §2

[25] = tested on: green foxtail; assay: Test C postemergence; format: in vivo, Setaria viridis; conditions: 10 days, 0 to 100 scale (0 no effect, 100 complete control)
Outline: as §2

[26] = tested on: galium; assay: Test C postemergence; format: in vivo, Galium aparine; conditions: 10 days, 0 to 100 scale (0 no effect, 100 complete control)
Outline: as §2

[27] = tested on: wheat; assay: Test C preemergence; format: in vivo, Triticum aestivum; conditions: for Wheat plant response rating: 500 g ai/ha, preemergence, 0 to 100 scale (0 no effect, 100 complete control); for Plant response rating, Wheat: Preemergence, 125 g ai/ha, 0 to 100 scale, 0 no effect, 100 complete control
Outline: as §2

[28] = tested on: oat, wild; assay: Test C preemergence; format: in vivo, Avena fatua; conditions: for Oat, Wild plant response rating: 500 g ai/ha, preemergence, 0 to 100 scale (0 no effect, 100 complete control); for Plant response rating, Oat, Wild: Preemergence, 125 g ai/ha, 0 to 100 scale, 0 no effect, 100 complete control
Outline: as §2

Compound: Cc1ccc(-n2cnc(CC#N)n2)cc1C(=O)N1C[C@H](C)Oc2c(Cl)cccc21 [Compound 364]
- Plant response rating, Sedge, Umbrella (Flood) [1]: 95
- Plant response rating, Horseweed ([2]; 500 g ai/ha, postemergence): 0
- Plant response rating, Horseweed ([2]; Postemergence, 125 g ai/ha): 0
- Barnyardgrass plant response rating [3]: 100
- Plant response rating, Barnyardgrass [3]: 50
- Blackgrass plant response rating [4]: 90
- Plant response rating, Blackgrass [4]: 60
- Plant response rating, Barnyardgrass ([5]; 500 g ai/ha, postemergence): 80
- Plant response rating, Barnyardgrass ([5]; Postemergence, 125 g ai/ha): 50
- Plant response rating, Corn ([6]; 500 g ai/ha, postemergence): 50
- Plant response rating, Corn ([6]; Postemergence, 125 g ai/ha): 30
- Soybean plant response rating [7]: 100
- Plant response rating, Soybean [7]: 100
- Plant response rating, Ragweed ([8]; 500 g ai/ha, postemergence): 80
- Plant response rating, Ragweed ([8]; Postemergence, 125 g ai/ha): 70
- Plant response rating, Ryegrass, Italian ([9]; 500 g ai/ha, postemergence): 100
- Plant response rating, Ryegrass, Italian ([9]; Postemergence, 125 g ai/ha): 70
- Plant response rating, Wheat ([10]; 500 g ai/ha, postemergence): 80
- Plant response rating, Wheat ([10]; Postemergence, 125 g ai/ha): 30
- Plant response rating, Barnyardgrass (Flood) [11]: 10
- Plant response rating, Soybean ([12]; 500 g ai/ha, postemergence): 100
- Plant response rating, Soybean ([12]; Postemergence, 125 g ai/ha): 100
- Plant response rating, Pigweed, Palmer ([13]; 500 g ai/ha, postemergence): 90
- Plant response rating, Pigweed, Palmer ([13]; Postemergence, 125 g ai/ha): 70
- Plant response rating, Rice (Flood) [14]: 10
- Foxtail, Green plant response rating [15]: 100
- Plant response rating, Foxtail, Green [15]: 100
- Pigweed, Palmer plant response rating [16]: 100
- Plant response rating, Pigweed, Palmer ([16]; Preemergence, 125 g ai/ha, 0 to 100 scale, 0 no effect, 100 complete control): 100
- Corn plant response rating [17]: 30
- Plant response rating, Corn [17]: 10
- Plant response rating, Ducksalad (Flood) [18]: 80
- Ragweed plant response rating [19]: 80
- Plant response rating, Ragweed [19]: 20
- Plant response rating, Blackgrass ([20]; 500 g ai/ha, postemergence): 100
- Plant response rating, Blackgrass ([20]; Postemergence, 125 g ai/ha): 90
- Ryegrass, Italian plant response rating [21]: 90
- Plant response rating, Ryegrass, Italian [21]: 60
- Plant response rating, Kochia ([22]; 500 g ai/ha, postemergence): 90
- Plant response rating, Kochia ([22]; Postemergence, 125 g ai/ha): 70
- Kochia plant response rating [23]: 90
- Plant response rating, Kochia [23]: 70
- Plant response rating, Oat, Wild ([24]; 500 g ai/ha, postemergence): 70
- Plant response rating, Oat, Wild ([24]; Postemergence, 125 g ai/ha): 60
- Plant response rating, Foxtail, Green ([25]; 500 g ai/ha, postemergence): 90
- Plant response rating, Foxtail, Green ([25]; Postemergence, 125 g ai/ha): 80
- Plant response rating, Galium ([26]; 500 g ai/ha, postemergence): 100
- Plant response rating, Galium ([26]; Postemergence, 125 g ai/ha): 100
- Wheat plant response rating [27]: 40
- Plant response rating, Wheat [27]: 0
- Oat, Wild plant response rating [28]: 30
- Plant response rating, Oat, Wild [28]: 10

Compound: Cc1nnc(-c2cccc(C(=O)N3C[C@H](C)Oc4c(Cl)cccc43)c2)o1 [Compound 355]
- Plant response rating, Sedge, Umbrella (Flood) [1]: 0
- Plant response rating, Horseweed ([2]; 500 g ai/ha, postemergence): 0
- Plant response rating, Horseweed ([2]; Postemergence, 125 g ai/ha): 0
- Barnyardgrass plant response rating [3]: 0
- Plant response rating, Barnyardgrass [3]: 0
- Blackgrass plant response rating [4]: 0
- Plant response rating, Blackgrass [4]: 0
- Plant response rating, Barnyardgrass ([5]; 500 g ai/ha, postemergence): 10
- Plant response rating, Barnyardgrass ([5]; Postemergence, 125 g ai/ha): 10
- Plant response rating, Corn ([6]; 500 g ai/ha, postemergence): 10
- Plant response rating, Corn ([6]; Postemergence, 125 g ai/ha): 10
- Soybean plant response rating [7]: 0
- Plant response rating, Soybean [7]: 20
- Plant response rating, Ragweed ([8]; 500 g ai/ha, postemergence): 0
- Plant response rating, Ryegrass, Italian ([9]; 500 g ai/ha, postemergence): 0
- Plant response rating, Ryegrass, Italian ([9]; Postemergence, 125 g ai/ha): 0
- Plant response rating, Wheat ([10]; 500 g ai/ha, postemergence): 10
- Plant response rating, Wheat ([10]; Postemergence, 125 g ai/ha): 10
- Plant response rating, Barnyardgrass (Flood) [11]: 0
- Plant response rating, Soybean ([12]; 500 g ai/ha, postemergence): 50
- Plant response rating, Pigweed, Palmer ([13]; 500 g ai/ha, postemergence): 10
- Plant response rating, Rice (Flood) [14]: 0
- Foxtail, Green plant response rating [15]: 20
- Plant response rating, Foxtail, Green [15]: 20
- Pigweed, Palmer plant response rating [16]: 0
- Corn plant response rating [17]: 0
- Plant response rating, Corn [17]: 0
- Plant response rating, Ducksalad (Flood) [18]: 0
- Ragweed plant response rating [19]: 0
- Plant response rating, Ragweed [19]: 0
- Plant response rating, Blackgrass ([20]; 500 g ai/ha, postemergence): 0
- Plant response rating, Blackgrass ([20]; Postemergence, 125 g ai/ha): 0
- Ryegrass, Italian plant response rating [21]: 20
- Plant response rating, Ryegrass, Italian [21]: 20
- Plant response rating, Kochia ([22]; 500 g ai/ha, postemergence): 0
- Kochia plant response rating [23]: 0
- Plant response rating, Kochia [23]: 0
- Plant response rating, Oat, Wild ([24]; 500 g ai/ha, postemergence): 0
- Plant response rating, Oat, Wild ([24]; Postemergence, 125 g ai/ha): 0
- Plant response rating, Foxtail, Green ([25]; 500 g ai/ha, postemergence): 10
- Plant response rating, Foxtail, Green ([25]; Postemergence, 125 g ai/ha): 10
- Plant response rating, Galium ([26]; 500 g ai/ha, postemergence): 10
- Wheat plant response rating [27]: 0
- Plant response rating, Wheat [27]: 0
- Oat, Wild plant response rating [28]: 0
- Plant response rating, Oat, Wild [28]: 0
